From US20080096811A1, “[…] VPAC2 RECEPTOR PEPTIDE AGONISTS” (Eli Lilly and Company, published 2008)
*1 amine or outer side, *2 acyl side, *3 side chain or, on linkers, in order; H or OH if unused. Where a SMILES comes first, the peptide text is derived from it. Where no end group is shown, it is not given here. Side-chain parts run from the residue outwards. The star is where a group is joined. γGlu = O=C(O)[C@H](CCC(=O)[*:2])N[*:1]; Palmitoyl = CCCCCCCCCCCCCCCC(=O)*; Hexanoyl = CCCCCC(=O)*; Propionyl = CCC(=O)*

Legend:
human VPAC2 [1] = biological target: T1, human VPAC2 (Homo sapiens, UniProt P41587); assay: Filter binding assay, human VPAC2 membranes, 125I-labeled VIP tracer
T1 construct: expressed in transfected cells
T1 sequence (P41587 24-438): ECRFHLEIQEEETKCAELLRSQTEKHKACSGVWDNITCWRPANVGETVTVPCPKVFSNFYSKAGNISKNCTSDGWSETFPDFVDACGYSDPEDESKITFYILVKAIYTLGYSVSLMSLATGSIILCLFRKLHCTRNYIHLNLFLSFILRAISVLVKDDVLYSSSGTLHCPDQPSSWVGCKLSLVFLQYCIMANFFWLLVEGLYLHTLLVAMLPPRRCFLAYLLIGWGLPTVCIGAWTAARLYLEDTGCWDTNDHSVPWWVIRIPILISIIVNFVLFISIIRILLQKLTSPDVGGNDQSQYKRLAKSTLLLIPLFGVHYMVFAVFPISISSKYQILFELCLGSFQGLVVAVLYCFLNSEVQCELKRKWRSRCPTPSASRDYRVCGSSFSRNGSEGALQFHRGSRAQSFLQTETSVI
Procedure: (§1) For this assay, the solutions and equipment include:
(§2) Presoak solution: 0.5% Polyethyleneamine in Aqua dest.
(§3) Buffer for flushing filter plates: 25 mM […] pH 7.4
(§4) Blocking buffer: 25 mM HEPES pH 7.4; 0.2% protease free BSA
(§5) Assay buffer: 25 mM HEPES pH 7.4; 0.5% protease free BSA
(§6) Dilution and assay plate: PS-Microplate, U form
(§7) Filtration Plate Multiscreen FB Opaque Plate; […] Type B Glasfiber filter
(§8) In order to prepare the filter plates, aspirate the presoak solution by vacuum filtration. Flush the plates twice with 200 μL flush buffer. Add 200 μL blocking buffer to the filter plate. The filter plate is then incubated […] for 1 hour at room temperature.
(§9) Fill the assay plate with 25 μL assay buffer, 25 μL membranes (2.5 μg) suspended in assay buffer, 25 μL compound (agonist) in assay buffer, and 25 μL tracer (about 40000 cpm) in assay buffer. Incubate the filled plate for 1 hour with shaking.
(§10) Conduct the transfer from assay plate to filter plate. Aspirate the blocking buffer by vacuum filtration and wash two times with flush buffer. Transfer 90 μL from the assay plate to the filter plate. Aspirate the 90 μL transferred from assay plate and wash three times with 200 μL flush buffer. Remove the plastic support. Dry for 1 hour at 60° C. Add 30 μL Microscint. Perform the count.

human PAC1 = human PAC1 (Homo sapiens, UniProt P41586); assay: biochemical
Sequence of human PAC1 (P41586 21-468): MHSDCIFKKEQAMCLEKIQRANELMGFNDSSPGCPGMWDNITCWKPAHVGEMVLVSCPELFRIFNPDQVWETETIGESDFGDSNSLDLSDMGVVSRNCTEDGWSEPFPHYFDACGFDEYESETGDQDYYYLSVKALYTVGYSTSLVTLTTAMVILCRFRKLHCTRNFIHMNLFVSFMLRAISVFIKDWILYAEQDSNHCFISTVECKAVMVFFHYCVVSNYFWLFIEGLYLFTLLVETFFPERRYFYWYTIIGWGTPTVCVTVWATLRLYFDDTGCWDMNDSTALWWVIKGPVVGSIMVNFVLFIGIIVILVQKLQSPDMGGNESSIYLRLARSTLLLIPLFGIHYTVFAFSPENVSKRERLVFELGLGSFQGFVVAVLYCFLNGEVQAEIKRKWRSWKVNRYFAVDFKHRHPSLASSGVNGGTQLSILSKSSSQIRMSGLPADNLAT
Procedure: as §1, §2, §3, §4, §5, §6, §7, §8, §9, §10

human VPAC1 = biological target: T2, human VPAC1 (Homo sapiens, UniProt P32241); assay: Filter binding assay, human VPAC1 membranes, 125I-labeled VIP tracer; set-up: expressed in transfected cells
T2 sequence (P32241 31-457): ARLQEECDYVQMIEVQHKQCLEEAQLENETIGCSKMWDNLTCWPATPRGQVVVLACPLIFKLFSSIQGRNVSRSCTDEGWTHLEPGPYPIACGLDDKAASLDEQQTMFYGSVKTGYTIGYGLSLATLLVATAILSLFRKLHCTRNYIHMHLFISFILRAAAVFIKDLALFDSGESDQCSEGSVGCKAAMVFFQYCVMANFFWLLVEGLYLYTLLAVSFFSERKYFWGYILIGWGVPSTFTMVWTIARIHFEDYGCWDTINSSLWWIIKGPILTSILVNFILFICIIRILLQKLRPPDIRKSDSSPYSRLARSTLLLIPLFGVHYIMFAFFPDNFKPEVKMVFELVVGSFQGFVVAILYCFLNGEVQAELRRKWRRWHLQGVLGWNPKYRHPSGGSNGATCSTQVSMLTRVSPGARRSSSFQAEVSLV
Procedure: as §1, §2, §3, §4, §5, §6, §7, §8, §9, §10

human VPAC2 [2] = biological target: T1, human VPAC2; assay: Alpha screen cAMP in vitro potency, human VPAC2; type: cell-based
Procedure: Alpha screen: Cells are washed in the culture flask once with PBS. Then, the cells are rinsed with enzyme free dissociation buffer. The dissociated cells are removed. The cells are then spun down and washed in stimulation buffer. For each data point, 50,000 cells suspended in stimulation buffer are used. To this buffer, Alpha screen acceptor beads are added along with the stimuli. This mixture is incubated for 60 minutes. Lysis buffer and Alpha screen donor beads are added and are incubated for 60 to 120 minutes. The Alpha screen signal (indicative of intracellular cAMP levels) is read in a suitable instrument (e.g. AlphaQuest from Perlin-Elmer). Steps including Alpha screen donor and acceptor beads are performed in reduced light.

human VPAC2 [3] = biological target: T1, human VPAC2; assay: DiscoveRx cAMP in vitro potency, human VPAC2; type: cell-based
Procedure: Also, the cells are washed twice. The cells are incubated in assay buffer plus IBMX for 15 minutes at room temperature. […] The stimuli are present for 30 minutes. Then, the assay buffer is gently removed. […] At day 3, the assay described above for the VPAC2 receptor cell line is performed.

Row | Compound | IC50 (human VPAC2 [1]) [nM] | IC50 (human PAC1) [nM] | IC50 (human VPAC1) [nM] | EC50 (human VPAC2 [2]) [nM] | EC50 (human VPAC2 [3]) [nM]
1 | CCCCCC(=O)N[C@@H](Cc1c[nH]cn1)C(=O)N[C@@H](CO)C(=O)N[C@@H](CC(=O)O)C(=O)N[C@@H](C)C(=O)N[C@H](C(=O)N[C@@H](Cc1ccccc1)C(=O)N[C@H](C(=O)N[C@@H](CC(=O)O)C(=O)N[C@@H](CC(N)=O)C(=O)N[C@@H](Cc1ccc(O)cc1)C(=O)N[C@H](C(=O)N[C@@H](CCCNC(=N)N)C(=O)N[C@@H](CC(C)C)C(=O)N[C@@H](CCCNC(=N)N)C(=O)N[C@@H](CCCCN)C(=O)N[C@@H](CCC(N)=O)C(=O)N[C@H](C(=O)N[C@@H](C)C(=O)N[C@@H](C)C(=O)N[C@@H](CCCCN)C(=O)N[C@@H](CCCCN)C(=O)N[C@@H](Cc1ccc(O)cc1)C(=O)N[C@@H](CC(C)C)C(=O)N[C@@H](CCC(N)=O)C(=O)N[C@@H](CO)C(=O)N[C@H](C(=O)N[C@@H](CCCCN)C(=O)N[C@@H](CC(N)=O)C(=O)N[C@@H](CO)C(=O)N[C@@H](CCCNC(=N)N)C(=O)N[C@H](C(=O)N[C@@H](CO)C(=O)N1CCC[C@H]1C(=O)N1CCC[C@H]1C(=O)N1CCC[C@H]1C(=O)N[C@@H](CCCCNC(=O)[C@@H](N)Cc1c[nH]c2ccccc12)C(N)=O)[C@@H](C)O)[C@@H](C)CC)C(C)C)[C@@H](C)O)[C@@H](C)O)C(C)C [Agonist P118] (Hexanoyl-HSDAVFTDNYTRLRKQVAAKKYLQSIKNSRTSPPPK(Trp)-NH2) | 0.25 | 125 | 76.3 | – | –
2 | CCCCCC(=O)N[C@@H](Cc1c[nH]cn1)C(=O)N[C@@H](CO)C(=O)N[C@@H](CC(=O)O)C(=O)N[C@@H](C)C(=O)N[C@H](C(=O)N[C@@H](Cc1ccccc1)C(=O)N[C@H](C(=O)N[C@@H](CC(=O)O)C(=O)N[C@@H](CCC(N)=O)C(=O)N[C@@H](Cc1ccc(O)cc1)C(=O)N[C@H](C(=O)N[C@@H](CCCNC(=N)N)C(=O)N[C@@H](CC(C)C)C(=O)N[C@@H](CCCNC(=N)N)C(=O)N[C@@H](CCCCN)C(=O)N[C@@H](CCC(N)=O)C(=O)N[C@H](C(=O)N[C@@H](C)C(=O)N[C@@H](C)C(=O)N[C@@H](CCCCN)C(=O)N[C@@H](CCCCN)C(=O)N[C@@H](Cc1ccc(O)cc1)C(=O)N[C@@H](CC(C)C)C(=O)N[C@@H](CCC(N)=O)C(=O)N[C@@H](CO)C(=O)N[C@H](C(=O)N[C@@H](CCCCN)C(=O)N[C@@H](CCC(N)=O)C(=O)N[C@@H](CO)C(=O)N[C@@H](CCCNC(=N)N)C(=O)N[C@H](C(=O)N[C@@H](CO)C(=O)N1CCC[C@H]1C(=O)N1CCC[C@H]1C(=O)N1CCC[C@H]1C(N)=O)[C@@H](C)O)[C@@H](C)CC)C(C)C)[C@@H](C)O)[C@@H](C)O)C(C)C [Agonist P157] (Hexanoyl-HSDAVFTDQYTRLRKQVAAKKYLQSIKQSRTSPPP-NH2) | 0.14 | 222 | 30.6 | 0.06 | –
3 | CCCCCCCCCCCCCCCC(=O)N[C@@H](CCC(=O)NCCCC[C@H](NC(=O)[C@@H]1CCCN1C(=O)[C@@H]1CCCN1C(=O)[C@@H]1CCCN1C(=O)[C@H](CO)NC(=O)[C@@H](NC(=O)[C@H](CCCNC(=N)N)NC(=O)[C@H](CO)NC(=O)[C@H](CC(N)=O)NC(=O)[C@H](CCCCN)NC(=O)[C@@H](NC(=O)[C@H](CO)NC(=O)[C@H](CCC(N)=O)NC(=O)[C@H](CC(C)C)NC(=O)[C@H](Cc1ccc(O)cc1)NC(=O)[C@H](CCCCN)NC(=O)[C@H](CCCCN)NC(=O)[C@H](C)NC(=O)[C@H](C)NC(=O)[C@@H](NC(=O)[C@H](CCC(N)=O)NC(=O)[C@H](CCCCN)NC(=O)[C@H](CCCNC(=N)N)NC(=O)[C@H](CC(C)C)NC(=O)[C@H](CCCNC(=N)N)NC(=O)[C@@H](NC(=O)[C@H](Cc1ccc(O)cc1)NC(=O)[C@H](CC(N)=O)NC(=O)[C@H](CC(=O)O)NC(=O)[C@@H](NC(=O)[C@H](Cc1ccccc1)NC(=O)[C@@H](NC(=O)[C@H](C)NC(=O)[C@H](CC(=O)O)NC(=O)[C@H](CO)NC(=O)[C@H](Cc1c[nH]cn1)NC(=O)CC)C(C)C)[C@@H](C)O)[C@@H](C)O)C(C)C)[C@@H](C)CC)[C@@H](C)O)C(N)=O)C(=O)O [Agonist P95] (Propionyl-HSDAVFTDNYTRLRKQVAAKKYLQSIKNSRTSPPPK([γGlu-Palmitoyl])-NH2) | 21.6 | – | 203 | 0.24 | 0.45
4 | CCCCCC(=O)N[C@@H](Cc1c[nH]cn1)C(=O)N[C@@H](CO)C(=O)N[C@@H](CC(=O)O)C(=O)N[C@@H](C)C(=O)N[C@H](C(=O)N[C@@H](Cc1ccccc1)C(=O)N[C@H](C(=O)N[C@@H](CC(=O)O)C(=O)N[C@@H](CC(N)=O)C(=O)N[C@@H](Cc1ccc(O)cc1)C(=O)N[C@H](C(=O)N[C@@H](CCCNC(=N)N)C(=O)N[C@@H](CC(C)C)C(=O)N[C@@H](CC(C)C)C(=O)N[C@@H](CC(C)C)C(=O)N[C@@H](CCCCN)C(=O)N[C@H](C(=O)N[C@@H](C)C(=O)N[C@@H](C)C(=O)N[C@@H](CCCCN)C(=O)N[C@@H](CCCCN)C(=O)N[C@@H](Cc1ccc(O)cc1)C(=O)N[C@@H](CC(C)C)C(=O)N[C@@H](CCC(N)=O)C(=O)N[C@@H](CO)C(=O)N[C@H](C(=O)N[C@@H](CCCCN)C(=O)N[C@@H](CC(N)=O)C(=O)N[C@@H](CO)C(=O)N[C@@H](CCCNC(=N)N)C(=O)N[C@H](C(=O)N[C@@H](CO)C(=O)N1CCC[C@H]1C(=O)N1CCC[C@H]1C(=O)N1CCC[C@H]1C(N)=O)[C@@H](C)O)[C@@H](C)CC)C(C)C)[C@@H](C)O)[C@@H](C)O)C(C)C [Agonist P156] (Hexanoyl-HSDAVFTDNYTRLLLKVAAKKYLQSIKNSRTSPPP-NH2) | 0.42 | 8290 | 93.3 | 0.29 | –
5 | HSDAVFTDNYTRLRKAAAAKKYLQSIKNSRTSPPP-NH2 [Agonist P97] | 0.82 | 87.3 | 97.5 | 0.64 | –
6 | HSDAVFTDNYTRLRKQAAAKKYLQSIKNSRTSPPP-NH2 [Agonist P96] | 0.58 | 151 | 89.3 | 0.9 | –
7 | CC[C@H](C)[C@H](NC(=O)[C@H](CO)NC(=O)[C@H](CCC(N)=O)NC(=O)[C@H](CC(C)C)NC(=O)[C@H](Cc1ccc(O)cc1)NC(=O)[C@H](CCCCN)NC(=O)[C@H](CCCCN)NC(=O)[C@H](C)NC(=O)[C@H](C)NC(=O)[C@@H](NC(=O)[C@H](CCC(N)=O)NC(=O)[C@H](CCCCN)NC(=O)[C@H](CCCNC(=N)N)NC(=O)[C@H](CC(C)C)NC(=O)[C@H](CCCNC(=N)N)NC(=O)[C@@H](NC(=O)[C@H](Cc1ccc(O)cc1)NC(=O)[C@H](CC(N)=O)NC(=O)[C@H](CC(=O)O)NC(=O)[C@@H](NC(=O)[C@H](Cc1ccccc1)NC(=O)[C@@H](NC(=O)[C@H](C)NC(=O)[C@H](CC(=O)O)NC(=O)[C@H](CO)NC(=O)[C@@H](N)Cc1c[nH]cn1)C(C)C)[C@@H](C)O)[C@@H](C)O)C(C)C)C(=O)N[C@@H](CCCCN)C(=O)N[C@@H](CC(N)=O)C(=O)N[C@@H](CO)C(=O)N[C@@H](CCCNC(=N)N)C(=O)N[C@H](C(=O)N[C@@H](CO)C(=O)N1CCC[C@H]1C(=O)N1CCC[C@H]1C(=O)N1CCC[C@H]1C(=O)N[C@@H](CCCCNC(=O)[C@@H](N)Cc1c[nH]c2ccccc12)C(N)=O)[C@@H](C)O [Agonist P128] (H-HSDAVFTDNYTRLRKQVAAKKYLQSIKNSRTSPPPK(Trp)-NH2) | 2.25 | 104 | 110 | 1.78 | –
